Results on one compound are retold here after patent publication US20230372318A1, “METHODS FOR TREATING A SUBJECT HAVING MULTIPLE SYSTEM ATROPHY” (Theravance Biopharma R&D IP, LLC, priority 2022, published 2023).

For one series, the system named is plasma protein. Nature of the series: Plasma protein binding, human. In kind it is in vitro ADME.
The target of another series is T1, rat native DAT (Rattus norvegicus, UniProt P23977).
T1 construct: human recombinant and rat native monoamine transporters; from tissue; host or cells: rat striatum (synaptosomes)
Nature of the series: [3H]-DA uptake inhibition, rat striatal synaptosomes. It counts as biochemical. To be noted: mean. The text has this: (§1) The in vitro pharmacology of ampreloxetine at human recombinant and rat native monoamine transporters was characterized as described in Smith et al., Inter. J. Neuropsychopharmcol. (2015) 1-11; and Tsuruda et al., J. Pharmacol. Toxicol. Meth. (2010) 61:192-204. See also, e.g., U.S. Pat. Nos. 8,304,432 B2 and 8,304,433 B2. Radioligands were sourced commercially (Perkin Elmer LifeSciences or GE Healthcare Life Sciences).
(§2) Briefly, membranes prepared from HEK293 (Human Embryonic Kidney 293) or CHO-K1 (Chinese Hamster Ovary-K1) cells stably transfected with human recombinant SERT (HEK293-hSERT), NET (HEK293-hNET), or DAT (CHO-K1-hDAT) were incubated for 1 hr at 22° C. in the absence, or presence, of 4-[2-(2,4,6-trifluorophenoxymethyl)phenyl]piperidine and [^3H]-citalopram (1.0 nM) for SERT, [^3H]-nisoxetine (2.0 nM) for NET, and [^3H]-WIN35428 (3.0 nM) for DAT in 50 mM Tris-HCl, 120 mM NaCl, 5 mM KCl, 0.025% BSA, 100 μM ascorbic acid, pH 7.4. Rat cortical membrane preparations were incubated with [^3H]-citalopram (2.0 nM) for SERT or [^3H]-nisoxetine (4.0 nM) for NET for 1 hr at 22° C. […] Binding and uptake assays were terminated by rapid filtration and radioactivity determined by liquid scintillation spectroscopy. […] Selectivity for NET (rounded to one significant figure) was determined as follows: […]

A further series has as its target T2, human recombinant DAT (Homo sapiens, UniProt Q01959).
T2 construct: expressed in transfected cells; host or cells: CHO-K1
Description: Radioligand binding, [3H]-WIN35428, CHO-K1-hDAT membranes. Conditions: mean.
Text: as §1, §2

T2 sequence (Q01959 whole entry): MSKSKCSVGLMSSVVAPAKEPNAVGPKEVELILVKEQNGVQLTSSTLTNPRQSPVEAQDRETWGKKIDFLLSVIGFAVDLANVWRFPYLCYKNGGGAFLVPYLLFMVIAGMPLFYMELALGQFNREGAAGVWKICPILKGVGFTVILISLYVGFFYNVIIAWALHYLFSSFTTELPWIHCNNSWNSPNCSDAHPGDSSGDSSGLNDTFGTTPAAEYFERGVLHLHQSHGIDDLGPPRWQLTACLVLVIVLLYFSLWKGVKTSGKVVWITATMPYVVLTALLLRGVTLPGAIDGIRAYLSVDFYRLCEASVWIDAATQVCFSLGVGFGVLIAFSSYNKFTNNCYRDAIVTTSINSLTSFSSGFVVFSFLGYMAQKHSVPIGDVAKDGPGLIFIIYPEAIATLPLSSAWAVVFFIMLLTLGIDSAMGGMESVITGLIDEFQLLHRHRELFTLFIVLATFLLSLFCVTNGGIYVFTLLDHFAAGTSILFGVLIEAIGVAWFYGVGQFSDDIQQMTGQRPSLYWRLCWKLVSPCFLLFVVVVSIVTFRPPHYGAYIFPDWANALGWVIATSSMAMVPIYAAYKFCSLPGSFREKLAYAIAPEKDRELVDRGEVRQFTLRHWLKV
T1 sequence (P23977 whole entry): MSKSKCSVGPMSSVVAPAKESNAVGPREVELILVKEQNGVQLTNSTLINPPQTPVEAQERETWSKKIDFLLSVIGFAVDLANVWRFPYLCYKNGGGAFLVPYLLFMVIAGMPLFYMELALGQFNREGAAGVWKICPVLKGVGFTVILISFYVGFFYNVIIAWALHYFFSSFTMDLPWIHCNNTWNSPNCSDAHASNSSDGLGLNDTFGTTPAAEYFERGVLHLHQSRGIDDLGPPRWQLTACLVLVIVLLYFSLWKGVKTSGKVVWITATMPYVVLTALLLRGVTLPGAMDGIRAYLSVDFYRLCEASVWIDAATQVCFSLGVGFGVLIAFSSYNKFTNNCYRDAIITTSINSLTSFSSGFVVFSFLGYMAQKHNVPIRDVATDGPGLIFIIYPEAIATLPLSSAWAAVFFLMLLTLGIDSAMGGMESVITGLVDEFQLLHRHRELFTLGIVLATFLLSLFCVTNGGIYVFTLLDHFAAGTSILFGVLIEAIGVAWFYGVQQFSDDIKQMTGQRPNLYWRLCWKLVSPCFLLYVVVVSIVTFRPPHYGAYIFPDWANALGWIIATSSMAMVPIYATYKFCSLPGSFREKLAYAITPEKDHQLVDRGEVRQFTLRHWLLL

For `Fc1cc(F)c(OCc2ccccc2C2CCNCC2)c(F)c1` [Ampreloxetine, 4-[2-(2,4,6-trifluorophenoxymethyl)phenyl]piperidine], the Plasma protein binding with plasma protein was determined as 79.1%. In addition, the “Neurotransmitter Uptake Inhibition: pIC50, DAT” value on rat native DAT is recorded as 6.9. For the same compound, the “Transporter Binding: pKi, DAT” value at human recombinant DAT worked out at 6.7.
